This is an account of results in ChEMBL document CHEMBL1806384, “Identification of benzofuran-4,5-diones as novel and selective non-hydroxamic acid, non-peptidomimetic based inhibitors of human peptide deformylase” (Bioorg Med Chem Lett, 2011).

The target in one experiment is T1, Peptide deformylase (Escherichia coli, UniProt Q9JN24).
T1 sequence (Q9JN24 whole entry): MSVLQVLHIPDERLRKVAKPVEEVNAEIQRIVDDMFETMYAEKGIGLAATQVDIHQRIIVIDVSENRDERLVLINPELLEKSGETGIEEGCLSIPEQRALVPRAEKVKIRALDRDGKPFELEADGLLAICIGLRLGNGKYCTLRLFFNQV
Nature of the experiment: Inhibition of Escherichia coli peptide deformylase after 1 hr by fluorescence polarization based competition assay.

For experiment [1], the target named is T2, Peptide deformylase, mitochondrial (Homo sapiens) (UniProt Q9HBH1).
T2 sequence (whole entry): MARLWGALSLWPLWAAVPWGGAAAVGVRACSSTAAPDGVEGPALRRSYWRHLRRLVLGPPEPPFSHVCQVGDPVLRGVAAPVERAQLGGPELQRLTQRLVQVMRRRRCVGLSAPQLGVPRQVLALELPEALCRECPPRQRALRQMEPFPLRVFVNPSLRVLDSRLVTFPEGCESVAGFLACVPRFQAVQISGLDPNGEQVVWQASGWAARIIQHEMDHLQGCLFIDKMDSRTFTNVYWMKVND
Nature of the experiment: Inhibition of human peptide deformylase at 100 uM after 1 hr by fluorescence polarization based competition assay. (In general: Fluorescence polarisation rises when a labelled molecule tumbles more slowly, as on binding a larger partner.)

Experiment [2] concerns the target T3, Peptide deformylase (Escherichia coli) (UniProt Q9JN24).
T3 sequence (whole entry): T1 sequence (Q9JN24 whole entry)
Nature of the experiment: Inhibition of Escherichia coli peptide deformylase at 100 uM after 1 hr by fluorescence polarization based competition assay.

The target in experiment [3] is T4, Aminopeptidase N (Sus scrofa) (UniProt P15145).
T4 sequence (whole entry): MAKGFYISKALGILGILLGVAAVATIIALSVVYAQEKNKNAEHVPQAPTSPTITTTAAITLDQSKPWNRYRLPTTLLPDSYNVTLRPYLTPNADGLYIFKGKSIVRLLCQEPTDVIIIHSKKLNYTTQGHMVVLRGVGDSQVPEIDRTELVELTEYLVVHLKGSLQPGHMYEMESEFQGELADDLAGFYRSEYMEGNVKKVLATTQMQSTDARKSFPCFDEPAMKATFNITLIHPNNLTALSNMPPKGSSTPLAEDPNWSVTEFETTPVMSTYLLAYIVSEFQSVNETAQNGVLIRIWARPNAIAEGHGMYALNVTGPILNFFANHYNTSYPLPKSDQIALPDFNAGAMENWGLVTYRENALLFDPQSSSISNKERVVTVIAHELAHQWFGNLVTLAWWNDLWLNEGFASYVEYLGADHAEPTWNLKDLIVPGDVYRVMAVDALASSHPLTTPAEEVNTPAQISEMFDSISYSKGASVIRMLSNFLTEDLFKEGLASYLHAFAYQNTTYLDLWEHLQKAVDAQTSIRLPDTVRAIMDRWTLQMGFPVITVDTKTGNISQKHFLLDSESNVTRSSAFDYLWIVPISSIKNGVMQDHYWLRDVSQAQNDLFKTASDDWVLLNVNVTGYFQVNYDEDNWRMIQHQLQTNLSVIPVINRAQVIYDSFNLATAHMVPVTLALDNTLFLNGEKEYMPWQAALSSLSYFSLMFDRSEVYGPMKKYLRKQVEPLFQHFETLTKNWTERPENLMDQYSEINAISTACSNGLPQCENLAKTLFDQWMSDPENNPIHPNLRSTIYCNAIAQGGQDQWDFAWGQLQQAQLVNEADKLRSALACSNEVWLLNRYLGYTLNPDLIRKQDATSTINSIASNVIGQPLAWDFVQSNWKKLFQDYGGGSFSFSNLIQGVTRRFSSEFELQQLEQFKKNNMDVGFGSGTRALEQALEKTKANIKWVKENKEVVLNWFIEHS
Nature of the experiment: Inhibition of porcine kidney microsomal aminopeptidase N at 100 uM after 1 hr by fluorescence polarization based competition assay.

Experiment [4] addresses T5, Interstitial collagenase (Homo sapiens) (UniProt P03956).
T5 sequence (whole entry): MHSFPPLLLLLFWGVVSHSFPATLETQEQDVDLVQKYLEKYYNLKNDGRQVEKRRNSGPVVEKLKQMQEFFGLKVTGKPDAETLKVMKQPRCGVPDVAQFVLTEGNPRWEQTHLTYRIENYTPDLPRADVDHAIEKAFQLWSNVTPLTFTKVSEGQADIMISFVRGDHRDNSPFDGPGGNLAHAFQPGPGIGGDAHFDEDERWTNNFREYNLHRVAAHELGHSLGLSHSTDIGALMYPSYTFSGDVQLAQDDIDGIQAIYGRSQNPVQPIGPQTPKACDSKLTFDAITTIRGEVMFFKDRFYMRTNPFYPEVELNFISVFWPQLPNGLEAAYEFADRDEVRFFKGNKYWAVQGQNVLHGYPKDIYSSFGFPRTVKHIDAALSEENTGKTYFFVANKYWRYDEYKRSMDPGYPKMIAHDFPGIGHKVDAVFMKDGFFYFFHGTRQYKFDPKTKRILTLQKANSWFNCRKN
Nature of the experiment: Inhibition of human recombinant MMP1 at 100 uM after 1 hr by fluorescence polarization based competition assay.

The subject of experiment [5] is HL-60. Nature of the experiment: Cytotoxicity against human HL60 cells. The format is functional, cell-based.
The test system of another experiment is Jurkat. Nature of the experiment: Cytotoxicity against human Jurkat cells. It counts as functional, cell-based.
A further experiment deals with MOLT-3. Nature of the experiment: Cytotoxicity against human MOLT3 cells. The format is functional, cell-based.
Experiment [6] is described as follows: Cytotoxicity against human ALL3 cells. The format is functional, cell-based.
The test system of a further experiment is HEK293. Nature of the experiment: Cytotoxicity against human HEK293 cells. The format is cell-based.
Experiment [7] has as its target T6, Peptide deformylase, mitochondrial (Homo sapiens, UniProt Q9HBH1).
T6 sequence (Q9HBH1 whole entry): T2 sequence (whole entry)
Nature of the experiment: Inhibition of human peptide deformylase after 1 hr by fluorescence polarization based competition assay.

Experiment [8] deals with HL-60. Nature of the experiment: Cytotoxicity against human vincristine-resistant HL60 cells. The format is functional, cell-based.
Experiment [9] can be described thus: Cytotoxicity against human CWR22 cells. It counts as functional, cell-based.
In another experiment the test system is Y79. Nature of the experiment: Cytotoxicity against human Y79 cells. The format is functional, cell-based.
Experiment [10] is described as follows: Cytotoxicity against human Meso47 cells. It counts as functional, cell-based.

As to `COc1ccc(C(=O)c2coc3c2C(=O)C(=O)C(Cl)=C3)cc1`, the IC50 at Peptide deformylase was over 100 µM; in the experiment on HL-60 [5] it was 32 µM; with Jurkat, 57 µM; with MOLT-3, 47 µM; in [6], 34 µM; with HEK293, 100 µM. The inhibition came out at 100% in experiment [1], 11% in experiment [2], 54% in experiment [3] and 11% in [4].

On to `COc1ccc(C(=O)c2coc3c2C(=O)C(=O)C=C3)cc1`, for which the half-maximal inhibitory concentration (IC50) was 34 µM in experiment [7]; over 100 µM at Peptide deformylase; 17 µM with HL-60 [5]; 27 µM in the experiment with HL-60 [8]; 8.9 µM in the experiment on Jurkat; 9.1 µM with MOLT-3. Further, the IC50 stood at 29 µM in experiment [6]; 35 µM in experiment [9]; 21 µM in the experiment on HEK293; 31 µM with Y79; 100 µM in experiment [10]. Besides, the inhibition in experiment [1] was 100%; in experiment [2] it was 24%; in experiment [3] it was 4%; in experiment [4], 6%.

Regarding `COc1ccc(C(=O)c2coc3c2C(=O)C(=O)C(Cl)=C3Cl)cc1OC`, the IC50 in [7] stood at 6.1 µM; in the experiment on HL-60 [8], 100 µM; in the experiment with HEK293 it was 100 µM. For the same compound, the inhibition in experiment [1] turned out to be 100%; in experiment [2], 63%; in experiment [3] it was 99%; in experiment [4] it was 46%.

Regarding `O=C1C=Cc2occ(C(=O)c3ccccc3)c2C1=O`, the IC50 at Peptide deformylase was over 100 µM; in the experiment on Jurkat, 8.1 µM; in the experiment on MOLT-3, 7.3 µM; in experiment [6], 22 µM; in [9], 30 µM; in [10], 63 µM. For the same compound, the inhibition stood at 100% in experiment [1], 32% in experiment [2], 5% in experiment [3] and 0% in [4].

Consider `COc1ccc(C(=O)c2coc3c2C(=O)C(=O)C=C3Cl)cc1`, for which the IC50 is 16 µM in experiment [7]; over 100 µM on Peptide deformylase; 17 µM with HL-60 [5]; 13 µM with Jurkat; 11 µM in the experiment on MOLT-3; 47 µM in experiment [6]. In addition, the IC50 is 59 µM in experiment [9], 40 µM in the experiment with HEK293, 74 µM in the experiment with Y79 and 100 µM in experiment [10]. Also, the inhibition in [1] was 100%; in experiment [2] it was 13%; in [3], 68%; in experiment [4] it was 10%.

In the case of `COc1cc(C(=O)c2coc3c2C(=O)C(=O)C(Cl)=C3Cl)cc(OC)c1OC`, the half-inhibitory concentration (IC50) is 25 µM in experiment [7]; over 100 µM on Peptide deformylase; 36 µM in the experiment on HL-60 [5]; 55 µM in the experiment on HL-60 [8]; 5.9 µM with Jurkat; 7 µM in the experiment with MOLT-3. Besides, the IC50 in [6] is 49 µM; in [10], 100 µM. In addition, the inhibition amounted to 100% in experiment [1], 27% in experiment [2], 50% in experiment [3] and 32% in [4].

For `COc1ccc(C(=O)c2coc3c2C(=O)C(=O)C(Br)=C3Br)cc1`, the half-inhibitory concentration (IC50) in [7] is 65 µM; at Peptide deformylase, over 100 µM; in the experiment with HL-60 [5] it was 53 µM; in the experiment on HL-60 [8] it was 100 µM; with Jurkat, 55 µM; in the experiment with MOLT-3, 40 µM. In addition, the concentration for half-maximal inhibition (IC50) was determined as 70 µM in experiment [6], 70 µM in [9], 100 µM with HEK293 and 100 µM in experiment [10]. The inhibition in experiment [1] worked out at 100%; in experiment [2] it was 22%; in experiment [3] it was 41%; in experiment [4] it was 23%.

On to `COc1ccc(C(=O)c2coc3c(Br)c(Br)c(O)cc23)cc1OC`, for which the inhibition in experiment [1], in experiment [2], in experiment [3] and in experiment [4] was 0% in each case. The IC50 with HL-60 [5] amounted to 57 µM; with HL-60 [8], 100 µM; in the experiment on Jurkat, 37 µM; in the experiment on MOLT-3 it was 52 µM; in experiment [6], 100 µM; in experiment [9], 100 µM. For the same compound, the IC50 was 52 µM in the experiment on HEK293, 100 µM with Y79 and 100 µM in experiment [10].

Consider `COc1ccc(C(=O)c2coc3ccc(O)cc23)cc1`, for which the inhibition was found to be 0% in experiment [1], 0% in experiment [2], 4% in [3] and 0% in experiment [4]. The IC50 in the experiment with HL-60 [5] turned out to be 100 µM; in the experiment with HL-60 [8], 100 µM; with Jurkat it was 33 µM; with MOLT-3, 100 µM; in experiment [6] it was 100 µM; in experiment [9], 100 µM. Moreover, the concentration for half-maximal inhibition (IC50) (with HEK293; with Y79; in experiment [10]) was 100 µM throughout.

For the compound `COc1cc(C(=O)c2coc3c(Cl)c(Cl)c(O)cc23)cc(OC)c1OC`, the inhibition in experiment [1] is 18%; in [2], 2%; in experiment [3] it was 2%; in [4], 0%. The IC50 (in the experiment on HL-60 [5]; in the experiment on HL-60 [8]; in the experiment with Jurkat; in the experiment on MOLT-3; in [6]; in experiment [9]) was 100 µM in each case. Also, the IC50 (with HEK293; in the experiment on Y79; in [10]) was 100 µM in each case.

For `COc1ccc(C(=O)c2coc3c2C(=O)C(=O)C=C3Br)cc1`, the IC50 in experiment [7] is 15 µM; at Peptide deformylase, over 100 µM; in the experiment on HL-60 [5] it was 10 µM; in the experiment on HL-60 [8] it was 38 µM; in the experiment on Jurkat, 12 µM; with MOLT-3 it was 11 µM. Further, the IC50 was found to be 35 µM in [6], 46 µM in experiment [9], 63 µM with Y79 and 100 µM in experiment [10]. For the same compound, the inhibition in experiment [1] was found to be 100%; in [2], 26%; in experiment [3], 64%; in [4], 8%.

In the case of `COc1ccc(C(=O)c2coc3cc(Br)c(O)cc23)cc1`, the inhibition worked out at 0% in experiment [1], 0% in experiment [2], 0% in [3] and 10% in [4]. Also, the IC50 in the experiment with HL-60 [5] came to 100 µM; in the experiment on HL-60 [8], 100 µM; with Jurkat it was 100 µM; in the experiment on MOLT-3, 72 µM; in experiment [6], 100 µM; in [9], 47 µM. The figures for the 50% inhibitory concentration (IC50) (in the experiment with HEK293; in the experiment with Y79; in [10]) were 72 µM, 100 µM and 100 µM, respectively.

What is called IC50 is the midpoint of a concentration-inhibition curve. Low values mean greater potency, high ones weaker potency. A word on the inhibition: it is the change of the read-out against control, counted positive when it falls.
